Common to all, as to assay: E. coli growth inhibition, wild-type GFP versus h24 humanized RFP strain, dose response, h24 mutant RFP vs wild-type GFP, cherry-pick (AID 977628)
Assay [1] concerns E. coli WT GFP strain growth, fluorescence, 24 h.
Assay [2] has as its system E. coli h24 humanized mutant RFP strain growth, fluorescence, 24 h.
For assay [3], the system named is E. coli mixed WT/h24 culture total growth, OD600, 24 h.

Among the data in PubChem BioAssay AID977628 (Broad Institute, 2014) are AC50 values, retold here.

Records with an inconclusive call do not appear. Active and inactive are the calls of the source.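 The calls were made as follows: active = compound lowering the normal-ribosome reporter at least twice as much as the humanized-ribosome reporter, growth loss under a set limit; inconclusive = no clear call, values can overlap the other calls; inactive = the rest.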

On to `Cc1cccc(CSCC(=O)N2CCN(S(=O)(=O)c3ccccc3C#N)CC2)c1`, for which the AC50 (commonly the concentration at which the activity in the assay is half-maximal) in assay [1] is > 100 µM (inactive); in assay [2] it was over 100 µM.
In assay [2], `CC(=O)Nc1cccc(OCc2ccc([N+](=O)[O-])cc2)c1` had an AC50 of over 100 µM.
In turn, `O=C(Nc1ccc(Br)cc1)c1cccnc1N1CCCCC1` yielded an AC50 in assay [2] of over 100 µM.
Same read-out and setting: with `Cn1ccc2cc(-c3ccc4ncnc(NCc5cccs5)c4c3)ccc21` the figure was over 100 µM.
Take `COC(=O)c1ccccc1NC(=O)c1ccc2c(c1)CC(C)O2` (stereo not drawn): the AC50 in assay [1] is > 100 µM (inactive); in assay [2], over 100 µM.
For `O=C(Nc1ccc(S(=O)(=O)N2CCOCC2)cc1)c1ccc([N+](=O)[O-])o1` the same measures were > 100 µM (inactive) and 50.9 µM.
On the same counts, the results for `CC(=O)NS(=O)(=O)c1ccc(NC(=O)COc2ccc(C(=O)c3ccccc3)cc2)cc1` are > 100 µM (inactive) and over 100 µM.
On the same counts, the results for `COc1cc(C)ccc1OCc1cc(C(=O)N2CCC(c3ccc(F)cc3)C2)no1` (stereo not drawn) are > 100 µM (inactive) and over 100 µM.
`O=C(Nc1ccc(-c2nnc3n2CCCCC3)cc1)c1cc2ccccc2o1` registered an AC50 in assay [2] of over 100 µM.
Take `COc1ccc(CNC(=O)CSCc2c(F)cccc2Cl)cc1`: the figures for the AC50 in assay [1] and in assay [2] were > 100 µM (inactive) and over 100 µM, respectively.
In assay [2], `C#CC(C)(C)NC(=O)c1ccc(-c2ccccc2F)cc1` registered an AC50 of over 100 µM.
As to `O=C(O)c1cccnc1SCc1ccccc1Cl`, the AC50 in assay [1] was > 100 µM (inactive); in assay [2], over 100 µM.
Consider `CC(=O)Nc1nc(C)c(-c2csc(Nc3ccccn3)n2)s1`, for which the AC50 in assay [1] was > 100 µM (inactive); in assay [2] it was over 100 µM.
On to `CCOc1ccc2oc(-c3ccccc3)c(C(=O)N(C)C)c2c1`, for which the AC50 in assay [2] was over 100 µM.
Same read-out and setting: with `CC(NC(=O)c1ccncc1)c1ccc(Cl)cc1Cl` (stereo not drawn) the figure was over 100 µM.
Same read-out and setting: with `COc1ccccc1NC(=O)COC(=O)Cc1c[nH]c2ccccc12` the figure was over 100 µM; with `COC(=O)c1cc2ccccc2n1S(=O)(=O)c1ccccc1`, over 100 µM; with `Cc1nc2ncnn2c(N2CCC(C(=O)NC3CCCC3)CC2)c1Cc1ccccc1`, over 100 µM.
Same read-out and setting: with `C=CCNC(=O)c1ccccc1CCc1ccccc1` the figure was over 100 µM.
Consider `COc1ccc(CCNc2nc(-c3ccncc3)cs2)cc1OC`, for which the figures for the AC50 in assay [1] and in assay [2] were > 100 µM (inactive) and over 100 µM, respectively.
On to `Cc1cc(Br)cn2c(Cc3cccc(Cl)c3)c(-c3ccco3)nc12`, for which the AC50 in assay [2] was over 100 µM.
`O=C(O)c1ccc(-c2noc(-c3cccc(Cl)c3)n2)cc1`: the results for the AC50 in assay [1] and in assay [2] were > 100 µM (inactive) and over 100 µM, respectively.
For `O=C(Cc1ccc(NC(=O)C2CCCN(C(=O)CCc3ccccc3)C2)cc1)Nc1cccc(C(=O)N2CCCC2)c1` (stereo not drawn) the same measures were > 100 µM (inactive) and over 100 µM.
On the same counts, the results for `O=c1[nH]n2c(-c3ccccc3)nc(O)c2c2ccccc12` are > 100 µM (inactive) and 36.6 µM.
In the case of `c1ccc(CSCc2ccccc2)cc1`, the AC50 in assay [2] was over 100 µM.
In assay [2], `O=C(NCc1ccccc1Cl)c1ccc2c(c1)SC1=NS(=O)(=O)CCN12` came in with an AC50 of over 100 µM.
For `Cc1ccc(-c2nc3ccc(NS(=O)(=O)c4ccccc4)cc3[nH]2)o1`, the results for the AC50 in assay [1] and in assay [2] were > 100 µM (inactive) and 5.12 µM, respectively.
Turning to `CCOc1cc(/C=C(\CC(=O)O)c2nc3ccccc3s2)ccc1OC`, in assay [2], the AC50 is over 100 µM.
As for `CCOc1ccc(S(=O)(=O)N(C)c2ccc(OCC(=O)Nc3ccc4[nH]c(=O)[nH]c4c3)cc2)cc1`, the AC50 in assay [1] is > 100 µM (inactive); in assay [2], over 100 µM.
Compound `O=C1c2ccccc2C(c2nnnn2C2CCCCC2)N1CCc1ccc(O)cc1` (stereo not drawn) yielded an AC50 in assay [2] of over 100 µM.
`O=C(Nc1cccc(Oc2ccc3c(c2)C(=O)NC3=O)c1)c1cccs1`: the AC50 in assay [1] was > 100 µM (inactive); in assay [2], over 100 µM.
Turning to `O=C(CN1C(=O)c2ccccc2C1=O)Nc1cccc(S(=O)(=O)Nc2ccccc2Cl)c1`, the AC50 was > 100 µM (inactive) in assay [1] and over 100 µM in assay [2].
For the compound `N#Cc1nc(-c2ccco2)oc1NCc1ccccc1Cl`, the AC50 in assay [2] is over 100 µM.
On the same count and under the same terms, with `Nc1ccc(C(=O)OCCc2ccccc2)cc1` the figure was over 100 µM; with `O=C(Nc1cccc(O)c1)c1cccc(S(=O)(=O)Nc2cccc(O)c2)c1`, over 100 µM; with `CC(OC(=O)COc1ccccc1)C(=O)NC1CCCC1` (stereo not drawn), over 100 µM.
The same measure, in the same setting: with `CCOc1ccc(S(=O)(=O)N(C)c2ccc(OCC(=O)NCc3cccnc3)cc2)cc1` the figure was over 100 µM; with `Cc1cccc(-n2cnc3cc([N+](=O)[O-])ccc32)c1`, over 100 µM.
Same read-out and setting: with `COCC(C)NC(=O)c1nn(Cc2ccccc2)c(=O)c2ccccc12` (stereo not drawn) the figure was over 100 µM; with `Cn1cnc([N+](=O)[O-])c1Oc1ccccc1`, over 100 µM.
For the compound `O=S(=O)(NCc1ccc2c(c1)OCO2)c1ccc2c(c1)oc1ccccc12`, the values for the AC50 in assay [1] and in assay [2] were > 100 µM (inactive) and over 100 µM, respectively.
`COc1ccc2c(c1)c1ncn(Cc3ccccn3)c(=O)c1n2C` displayed an AC50 in assay [2] of over 100 µM.
The same measure, in the same setting: with `O=C(O)CC1(CC(=O)Nc2ccc3sccc3c2)CCCCC1` the figure was over 100 µM; with `Cc1ccc(C(=O)Nc2ccc3ncccc3c2)cc1`, over 100 µM.
The same measure, in the same setting: with `O=C(NCCCn1ccnc1)c1sc2cc([N+](=O)[O-])ccc2c1Cl` the figure was over 100 µM.
Still for that read-out and setting: with `CCCC(=O)Nc1cccc(C(=O)Nc2ccccc2OCC)c1` the figure was over 100 µM.
The compound `CSc1nc2nc3c(cc2c(=O)n1-c1ccccc1C)CCCC3` yielded an AC50 in assay [2] of 6.76 µM.
`O=C(c1cccs1)c1c[nH]cc1-c1ccccc1` registered an AC50 in assay [2] of over 100 µM.
The same measure, in the same setting: with `S=C1SCN(Cc2cccnc2)CN1Cc1cccnc1` the figure was over 100 µM; with `O=C(CSCc1ccc(Br)cc1)NCc1ccccn1`, over 100 µM; with `C(=C/c1nccc2c1[nH]c1ccccc12)/c1ccc2c(c1)OCO2`, over 100 µM.
Still for that read-out and setting: with `CCc1cccc(NC(=O)CN(C)S(=O)(=O)c2cccc3cccnc23)c1` the figure was over 100 µM; with `CCOC(=O)C(C)Sc1nc(N2CCOCC2)c2c(c1C#N)CC(C)(C)OC2` (stereo not drawn), over 100 µM.
Take `COc1ccc(-c2ccccc2)cc1NC(=O)c1ccncc1`: the AC50 in assay [1] is > 100 µM (inactive); in assay [3], over 100 µM.
In the case of `Nc1ncncc1-c1ccc(Cl)cc1`, the values for the AC50 in assay [1] and in assay [3] were > 100 µM (inactive) and over 100 µM, respectively.
For `Cc1ccc(Oc2ccc(S(=O)(=O)N3CCOCC3)cc2C(N)=O)cc1C` the same measures were > 100 µM (inactive) and over 100 µM.
Regarding `COc1ccc(OC)c(-c2csc(NC(=O)C3COc4ccccc4O3)n2)c1` (stereo not drawn), the AC50 was > 100 µM (inactive) in assay [1] and over 100 µM in assay [3].
In the case of `O=C(NCc1ccc(-c2nc3ccccc3s2)cc1)c1ccco1`, the AC50 in assay [1] was > 100 µM (inactive); in assay [3], 4.43 µM.
For `CC(CCc1ccccc1)NC(=O)CNC(=O)COc1ccccc1` (stereo not drawn) the same measures were > 100 µM (inactive) and over 100 µM.
For `CCOc1ccccc1/C=C/c1cc(C(=O)O)c2ccccc2n1`, the AC50 was > 100 µM (inactive) in assay [1] and 37.6 µM in assay [3].
With `CC(=O)c1c(N2CCOCC2)nc2ccc(Cl)cc2c1-c1ccccc1`, the results for the AC50 in assay [1] and in assay [3] were > 100 µM (inactive) and over 100 µM, respectively.
For `O=C(CSc1nc2ccccc2[nH]1)Nc1cccc(S(=O)(=O)N2CCOCC2)c1` the same measures were > 100 µM (inactive) and 47.9 µM.
For `CN(Cc1ccccc1)C(=O)c1[nH]cnc1C(=O)NCc1ccccc1` the same measures were > 100 µM (inactive) and over 100 µM.
Regarding `O=S(=O)(Nc1ccc(-c2cnco2)cc1)c1ccccc1`, the figures for the AC50 in assay [1] and in assay [3] were > 100 µM (inactive) and over 100 µM, respectively.
For `O=C(CC(=O)c1cccs1)c1ccncc1` the same measures were > 100 µM (inactive) and over 100 µM.
With `O=C(Nc1cccc(Cl)c1)N1C[C@@H]2[C@H](c3ccccc31)[C@@H](CO)N2CC1CCCCC1`, the values for the AC50 in assay [1] and in assay [3] were > 100 µM (inactive) and 41.9 µM, respectively.
With `CC(C)(C)C1CCC(OCC(O)CN2CCN(c3ccccn3)CC2)CC1` (stereo not drawn), the AC50 is > 100 µM (inactive) in assay [1] and 41 µM in assay [3].
For `CCc1cc(C(=O)N2CCCC(C(=O)c3cccc4ccccc34)C2)n(C)n1` (stereo not drawn) the same measures were > 100 µM (inactive) and over 100 µM.
For `C[C@@H]1CN([C@@H](C)CO)C(=O)c2cccc(NC(=O)Nc3ccccc3)c2O[C@@H]1CN(C)S(=O)(=O)c1ccc(Cl)cc1` the same measures were > 100 µM (inactive) and 49.6 µM.
`O=C(C1Cc2ccccc2CN1C(=O)c1ccccc1)N1CCN(c2ccccc2)CC1` (stereo not drawn): the AC50 in assay [2] was over 100 µM.
As to `COc1ccc(S(=O)(=O)N2CCCCN3[C@@H](CO)[C@H](c4ccc(C#CC(C)C)cc4)[C@@H]3C2)cc1`, the AC50 was > 100 µM (inactive) in assay [1] and 47 µM in assay [3].
For `COCC#Cc1ccc2c(c1)O[C@@H](CN(C)S(=O)(=O)c1cccc(F)c1)[C@@H](C)CN([C@H](C)CO)S2(=O)=O` the same measures were > 100 µM (inactive) and 50 µM.
For `O=c1c2ccccc2cnn1Cc1n[nH]c(=S)n1C1CC2CCC1C2` (stereo not drawn) the same measures were > 100 µM (inactive) and over 100 µM.
On the same counts, the results for `COc1cccc(OCCNS(=O)(=O)c2ccccc2[N+](=O)[O-])c1` are > 100 µM (inactive) and over 100 µM.
Turning to `Cn1c(SCC(=O)Nc2ccccc2-c2ccccc2)nnc1-c1ccco1`, the AC50 in assay [1] is > 100 µM (inactive); in assay [3] it was over 100 µM.
On the same counts, the results for `COc1ccc(C(=O)Nc2ccc3nc(C)sc3c2)cc1OC` are > 100 µM (inactive) and over 100 µM.
The compound `O=C(CSCc1cnn(-c2ccccc2)c1-n1cccc1)NCc1cccnc1` yielded an AC50 in assay [2] of over 100 µM.
For the compound `O=C(NCc1nnnn1-c1ccc(Cl)cc1)c1ccc([N+](=O)[O-])o1`, the AC50 in assay [1] is > 100 µM (inactive); in assay [3], over 100 µM.
